Results: the supplement of paper PMC10307832

Compound: CN1CCN(c2ccc3nc(-c4c(N)c5c(F)cccc5[nH]c4=O)[nH]c3c2)CC1 [Dovitinib]
Assay: relative viability (nuclei count vs DMSO), 5 days (fraction); higher = more cells survive
Summary of the method: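 Lung cancer cell lines in 1536-well plates were kept overnight at 37 °C, then pinned with five library-drug doses (not always all listed) spaced by √10 on vehicle-anchored plates. After 5 days without medium change, cells were fixed, permeabilised and Hoechst-stained in one step, imaged at 4×, and nuclei were counted with MetaXpress. Viability is treated-well nuclei divided by vehicle-well nuclei, taken as the median over plates. Plates passed only with control CV below 25% and at least one doubling.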

Row | Cell Line | relative viability (0.02 µM) | relative viability (0.06325 µM) | relative viability (0.2 µM) | relative viability (0.6325 µM) | relative viability (2 µM)
1 | HOP-62 | 0.907 | 1.03 | 1.03 | 1.06 | 1.04
2 | NCI-H1915 | 0.937 | 0.975 | 1 | 1.01 | 0.981
3 | NCI-H3122 | 0.947 | 0.963 | 0.955 | 0.966 | 0.999
4 | NCI-H1651 | 0.986 | 0.999 | 1.03 | 1.06 | 0.963
5 | EBC-1 | 1.08 | 0.997 | 1.06 | 0.975 | 1.06
6 | NCI-H838 | 0.935 | 1 | 1.01 | 0.95 | 0.966
7 | NCI-H596 | 0.965 | 0.957 | 1 | 1.12 | 0.932
8 | SK-LU-1 | 0.991 | 1.09 | 1.08 | 1.08 | 1.11
9 | NCI-H441 | 1.08 | 1.11 | 1.04 | 1.07 | 1.06
10 | NCI-H650 | 0.97 | 0.883 | 1 | 0.927 | 1.03
11 | SK-MES-1 | 0.988 | 1.01 | 1.06 | 1.01 | 1.03
12 | NCI-H1792 | 0.898 | 0.818 | 0.894 | 1.04 | 0.907
13 | NCI-H1355 | 1.04 | 0.931 | 1.04 | 0.989 | 1.07
14 | SW 1573 | 1.05 | 0.992 | 1.01 | 0.947 | 1.07
15 | A549 | 0.964 | 1.04 | 1.06 | 0.991 | 0.966
16 | NCI-H2347 | 1.04 | 1.02 | 1.06 | 1.08 | 1.04
17 | LCLC-97TM1 | 1.07 | 0.785 | 1.01 | 1 | 0.979
18 | EMC-BAC-2 | 1.06 | 0.952 | 0.994 | 1.01 | 1.02
19 | NCI-H1975 | 0.916 | 0.966 | 1.03 | 0.976 | 0.947

Row | Cell Line | relative viability (0.02 µM) | relative viability (0.06325 µM) | relative viability (0.2 µM) | relative viability (0.6325 µM) | relative viability (2 µM)
20 | BEN | 0.987 | 0.959 | 1.14 | 1.12 | 0.964
21 | NCI-H1703 | 1.01 | 1.08 | 0.882 | 0.637 | 0.541
22 | NCI-H23 | 1.01 | 1.03 | 1.07 | 1.02 | 0.952
23 | NCI-H520 | 1.01 | 1.02 | 0.944 | 0.976 | 0.955
24 | CAL-12T | 1.07 | 1.02 | 1.02 | 0.99 | 1.1
25 | EPLC-272H | 0.942 | 0.955 | 0.976 | 0.913 | 0.928
26 | LCLC-103H | 0.975 | 0.931 | 1.03 | 1.06 | 0.992
27 | NCI-H2405 | 0.96 | 0.969 | 1.06 | 1.03 | 1.16
28 | HCC-15 | 1.05 | 0.961 | 1.07 | 1.03 | 1
29 | PC-3 [JPC-3] | 1.1 | 0.962 | 1.04 | 1.07 | 1.08
30 | NCI-H1944 | 0.94 | 0.94 | 1.08 | 1.02 | 1.01
31 | HARA | 1.29 | 0.948 | 1 | 1.25 | 1.01
32 | NCI-H1563 | 1.01 | 1.07 | 0.97 | 1.05 | 1.08
33 | NCI-H2126 | 1.01 | 0.966 | 1.01 | 0.983 | 1.05
34 | LXF-289 | 0.938 | 1.01 | 0.999 | 1.02 | 0.979
35 | NCI-H460 | 0.982 | 1.02 | 0.993 | 0.985 | 0.964
36 | NCI-H1395 | 0.99 | 0.849 | 0.959 | 0.827 | 1.15
37 | NCI-H2170 | 0.868 | 1.01 | 1.04 | 0.982 | 0.946
38 | NCI-H2009 | 0.881 | 1.01 | 1.02 | 1.03 | 1.12
